The text below walks through data of patent publication US6403617B1, “Diaminopyridine-containing thiourea inhibitors of herpes viruses” (American Home Products Corp., priority 1998, dated 2002).

The subject of assay [1] is HCMV wild-type. Briefly: HCMV yield assay. The class given is cell-based, Human Cytomegalovirus. As to conditions: human foreskin fibroblasts, reduction of virus yield by 50%; for IC50: Human betaherpesvirus 5, Fibroblast, read-out: IC50 (ug/ml) HCMV. How it is done: Yield assay. Monolayer cultures of human foreskin fibroblasts are infected with HCMV wild-type, typically at a multiplicity of infection equal to 0.2, in the presence of inhibitor compound (varying concentrations). At three days post-infection, total virus produced in these cultures (i.e. virus yield) is assessed by harvesting and titering the virus in 12-well plates of cultured human foreskin fibroblasts (done in the absence of inhibitor). Plaques are quantified at 2 weeks post-infection. An inhibitor of HCMV is identified by the reduction in titer of virus yield in the presence, compared to the titer in the absence of compound. In this assay, the relative anti-HCMV activity of an inhibitor is typically determined by calculating the IC50 or IC90 value, that is, the amount of compound required to reduce the virus yield by 50% or 90%, respectively. Table I describes IC50 data for compounds tested against HCMV.

The test system of assay [2] is HSV-1. The assay can be described thus: HSV Antiviral (ELISA) Assay. Format: cell-based, herpes simplex virus type 1. Conditions: Human alphaherpesvirus 1; Vero cells, HSV-1, about 24 hours post-infection; read-out: IC50 (ug/ml) HSV. Here is the method: Vero cells (ATCC #CCL-81) are plated on 96-well tissue cultugre plates at 3.5×10^4 cells per 100 μl tissue culture DMEM (Dulbecco's modified Eagle media) supplemented with 2% fetal bovine serum (FBS) in each well. After overnight incubation @ 37° C. (in 5% CO2) and 30 minutes prior to infection with HSV-1 (multiplicity of infection equal to 0.006), cells are either untreated, or treated with test compound (multiple concentrations) or reference standard drug control. After approximately 24 hours post-infection incubation @ 37° C. (in 5% CO2), cells are fixed for ELISA assay. The primary antibody is murine anti-HSV glycoprotein D monoclonal primary antibody and the secondary antibody is goat anti-mouse IgG linked to β-galactosidase. Thus the extent of viral replication is determined by assessing β-galactosidase activity by quantifying the generation of the 4-methyl umbelliferone fluorescent cleavage product after addition of the methyl umbelliferyl-β-D-galactoside (Sigma #M1633) substrate on a microfluorimeter (365 nm for excitation and 450 nm for emission). Antiviral activity (IC50) of the test compound is determined by comparing the flourescence obtained in absence of compound to that obtained in the presence of compound.

Assay [3] deals with VZV strain Ellen. Briefly: VZV Antiviral (ELISA) Assay. Conditions: human foreskin fibroblast cells, three days; for inhibition at 10 µg/mL / IC50: Human alphaherpesvirus 3, 72 h; for inhibition at 10 µg/mL: read-out: % inhibition 10 ug/ml VZV, 10 ug/ml; for IC50: read-out: IC50 (ug/ml) VZV. The class given is cell-based, varicella-zoster virus. How it is done:
For the generation of stock VZV to be used in the assay, VZV strain Ellen (ATCC #VR-1367) is used to infect human foreskin fibroblast (HFF) cells at low multiplicity (less than 0.1) and incubated overnight at 37° C. in 5% CO2. After the overnight incubation, the mixture of uninfected and VZV-infected HFF infected cells are then harvested and added to each well of 96-well plates (3.5×10^4 cells in 100 μl DMEM supplemented with 2% FBS) which contain test compound or the reference standard drug control (in 100 μl DMEM supplemented with 2% FBS per well). These cells are incubated for three days at 37° C. in 5% CO2, then fixed for ELISA assay. The primary antibody is murine anti-VZV glycoprotein II monoclonal antibody (Applied Biosystems, Inc. #13-145-100) and the secondary antibody is goat anti-mouse IgG linked to β-galactosidase. Thus the extent of viral replication is determined by assessing β-galactosidase activity by quantifying the generation of the 4-methyl umbelliferone fluorescent cleavage product after addition of the methyl umbelliferyl-β-D-galactoside (Sigma #M1633) substrate on a microfluorimeter (365 nm for excitation and 450 nm for emission). Antiviral activity (IC50) of the test compound is determined by comparing the flourescence obtained in absence of compound to that obtained in the presence of compound.

In brackets after ≈: the same amount, converted by molar mass. A value given as a limit tells only on which side of the number the result lay.

On to `COc1cc(OC)c(NC(=S)Nc2ccc(NC(=O)c3ccccc3C)nc2)cc1Cl` [Example 283, N-[5-[[[(5-Chloro-2,4-dimethoxyphenyl)amino]thioxomethyl]amino]-2-pyridinyl]-2-methylbenzamide], for which the IC50 in assay [1] is 7 µg/mL (≈ 15.3 µM); in assay [2], 0.6 µg/mL (≈ 1.31 µM); in assay [3], greater than 10 µg/mL. Further, the inhibition at 10 µg/mL in assay [3] was found to be 17%.
For `COc1cc(OC)c(NC(=S)Nc2cccnc2NC(=O)c2ccco2)cc1Cl` [Example 284, Furan-2-carboxylic acid {3-[3-(5-chloro-2,4-dimethoxy-phenyl)-thioureido]-pyridin-2-yl}-amide], in that order: 0.4 µg/mL (≈ 0.924 µM), 3 µg/mL (≈ 6.93 µM), greater than 15 µg/mL and 100%.
With `COc1cc(OC)c(NC(=S)Nc2ccc(NC(=O)c3ccccc3F)nc2)cc1Cl` [Example 289, N-{5-[3-(5-Chloro-2,4-dimethoxy-phenyl)-thioureido]-pyridin-2-yl}-2-fluoro-benzamide], the IC50 in assay [1] is greater than 10 µg/mL; in assay [2], 0.6 µg/mL (≈ 1.3 µM); in assay [3] it was greater than 10 µg/mL. The inhibition at 10 µg/mL in assay [3] was 30%.
Take `COc1cc(OC)c(NC(=S)Nc2cccnc2NC(=O)c2csnn2)cc1Cl` [Example 498, [1,2,3]Thiadiazole-4-carboxylic acid {3-[3-(5-chloro-2,4-dimethoxy-phenyl)-thioureido]-pyridin-2-yl}-amide]: the IC50 was 0.14 µg/mL (≈ 0.31 µM) in assay [1], 6 µg/mL (≈ 13.3 µM) in assay [2] and greater than 10 µg/mL in assay [3]. In addition, in assay [3], the inhibition at 10 µg/mL was found to be 14%.
For `COc1cc(OC)c(NC(=S)Nc2ccc(NC(=O)c3ccccn3)nc2)cc1Cl` [Example 499, Pyridine-2-carboxylic acid {5-[3-(5-chloro-2,4-dimethoxy-phenyl)-thioureido]-pyridin-2-yl}-amide], in that order: 3 µg/mL (≈ 6.76 µM), 5 µg/mL (≈ 11.3 µM), greater than 10 µg/mL and 25%.
On the same counts, the results for `COc1cc(OC)c(NC(=S)Nc2ccc(NC(=O)c3ccccc3F)cn2)cc1Cl` [Example 507, N-{6-[3-(5-Chloro-2,4-dimethoxy-phenyl)-thioureido]-pyridin-3-yl}-2-fluoro-benzamide] are 1.2 µg/mL (≈ 2.6 µM), 10 µg/mL (≈ 21.7 µM), 4 µg/mL (≈ 8.68 µM) and 90%.
Take `O=C(Nc1ccc(NC(=S)NCc2cc(C(F)(F)F)cc(C(F)(F)F)c2)cn1)c1csnn1` [Example 815, N-{5-[({[3,5-bis(trifluoromethyl)benzyl]amino}carbothioyl)amino]-2-pyridinyl}-1,2,3-thiadiazole-4-carboxamide]: the IC50 in assay [1] was 0.0024 µg/mL (≈ 0.00474 µM); in assay [3] it was greater than 7.5 µg/mL.
For `C[C@H](NC(=S)Nc1ccc(NC(=O)c2csnn2)nc1)c1cc(C(F)(F)F)cc(C(F)(F)F)c1` [Example 816, N-(5-{[({(1S)-1-[3,5-bis(trifluoromethyl)phenyl]ethyl}amino)carbothioyl]amino}-2-pyridinyl)-1,2,3-thiadiazole-4-carboxamide], in that order: 0.0015 µg/mL (≈ 0.00288 µM) and greater than 7.5 µg/mL.
For the molecule `C[C@H](NC(=S)Nc1ccc(NC(=O)c2cscn2)nc1)c1cc(C(F)(F)F)cc(C(F)(F)F)c1` [Example 817, N-(5-{[({(1S)-1-[3,5-bis(trifluoromethyl)phenyl]ethyl}amino)carbothioyl]amino}-2-pyridinyl)-1,3-thiazole-4-carboxamide], the IC50 is 0.001 µg/mL (≈ 0.00192 µM) in assay [1] and greater than 7.5 µg/mL in assay [3].
For `CC(NC(=S)Nc1ccc(NC(=O)c2cscn2)nc1)c1cc(C(F)(F)F)ccc1F` (centres unmarked) [Example 818, N-(5-{[({1-[2-fluoro-5-(trifluoromethyl)phenyl]ethyl}amino)carbothioyl]amino}-2-pyridinyl)-1,3-thiazole-4-carboxamide], in that order: 0.0022 µg/mL (≈ 0.00469 µM) and greater than 7.5 µg/mL.
For `CC(NC(=S)Nc1ccc(NC(=O)c2cscn2)nc1)c1ccc(C(F)(F)F)cc1F` (centres unmarked) [Example 819, N-(5-{[({1-[2-fluoro-4-(trifluoromethyl)phenyl]ethyl}amino)carbothioyl]amino}-2-pyridinyl)-1,3-thiazole-4-carboxamide], in that order: 0.0022 µg/mL (≈ 0.00469 µM) and greater than 7.5 µg/mL.
For `CC(NC(=S)Nc1ccc(NC(=O)c2cscn2)nc1)c1cc(F)cc(C(F)(F)F)c1` (centres unmarked) [Example 820, N-(5-{[({1-[3-fluoro-5-(trifluoromethyl)phenyl]ethyl}amino)carbothioyl]amino}-2-pyridinyl)-1,3-thiazole-4-carboxamide], in that order: 0.0013 µg/mL (≈ 0.00277 µM) and 3.4 µg/mL (≈ 7.24 µM).
For the molecule `C[C@H](NC(=O)Nc1ccc(NC(=O)c2cscn2)nc1)c1cc(C(F)(F)F)cc(C(F)(F)F)c1` [Example 821, N-(5-{[({(1S)-1-[3,5-bis(trifluoromethyl)phenyl]ethyl}amino)carbonyl]amino}-2-pyridinyl)-1,3-thiazole-4-carboxamide], the IC50 in assay [1] was 0.014 µg/mL (≈ 0.0278 µM); in assay [3] it was greater than 7.5 µg/mL.
On the same counts, the results for `CC(NC(=S)Nc1ccc(NC(=O)c2cscn2)nc1)c1cccc(Br)c1` (centres unmarked) [Example 822, N-{5-[({[1-(3-bromophenyl)ethyl]amino}carbothioyl)amino]-2-pyridinyl}-1,3-thiazole-4-carboxamide] are 0.05 µg/mL (≈ 0.108 µM) and greater than 7.5 µg/mL.
For `CC(NC(=S)Nc1ccc(NC(=O)c2cscn2)nc1)c1ccccc1Br` (centres unmarked) [Example 823, N-{5-[({[1-(2-bromophenyl)ethyl]amino}carbothioyl)amino]-2-pyridinyl}-1,3-thiazole-4-carboxamide], in that order: 0.05 µg/mL (≈ 0.108 µM) and greater than 7.5 µg/mL.
On the same counts, the results for `CC(NC(=S)Nc1ccc(NC(=O)c2cscn2)nc1)c1cccc(C(F)(F)F)c1` (centres unmarked) [Example 824, N-(5-{[({1-[3-(trifluoromethyl)phenyl]ethyl}amino)carbothioyl]amino}-2-pyridinyl)-1,3-thiazole-4-carboxamide] are 0.004 µg/mL (≈ 0.00886 µM) and 3.2 µg/mL (≈ 7.09 µM).
Take `CC(NC(=S)Nc1ccc(NC(=O)c2cscn2)nc1)c1ccc(Cl)c(C(F)(F)F)c1` (centres unmarked) [Example 825, N-(5-{[({1-[4-chloro-3-(trifluoromethyl)phenyl]ethyl}amino)carbothioyl]amino}-2-pyridinyl)-1,3-thiazole-4-carboxamide]: the IC50 in assay [1] was found to be 0.003 µg/mL (≈ 0.00617 µM); in assay [3], 6.12 µg/mL (≈ 12.6 µM).
On the same counts, the results for `CC(NC(=S)Nc1ccc(NC(=O)c2cscn2)nc1)c1ccc(Cl)c(F)c1` (centres unmarked) [Example 826, N-{5-[({[1-(4-chloro-3-fluorophenyl)ethyl]amino}carbothioyl)amino]-2-pyridinyl}-1,3-thiazole-4-carboxamide] are 0.02 µg/mL (≈ 0.0459 µM) and 0.86 µg/mL (≈ 1.97 µM).
As to `CC(NC(=S)Nc1ccc(NC(=O)c2cscn2)nc1)c1ccc(Cl)cc1F` (centres unmarked) [Example 827, N-{5-[({[1-(4-chloro-2-fluorophenyl)ethyl]amino}carbothioyl)amino]-2-pyridinyl}-1,3-thiazole-4-carboxamide], the IC50 in assay [1] was determined as 0.026 µg/mL (≈ 0.0596 µM).
“N-(6-{[({(1S)-1-[3,5-bis(trifluoromethyl)phenyl]ethyl}amino)carbothioyl]amino}-3-pyridinyl)-1,2,3-thiadiazole-4-carboxamide [Example 829]”: the “IC50 (ug/ml) HCMV” value in assay [1] was determined as 0.08 µg/mL. Besides, in assay [3], the “IC50 (ug/ml) VZV” value is greater than 7.5 µg/mL.
For “N-{6-[({[1-(4-fluorophenyl)ethyl]amino}carbothioyl)amino]-3-pyridinyl}-1,2,3-thiadiazole-4-carboxamide [Example 828]”, in that order: 0.45 µg/mL and greater than 7.5 µg/mL.
